Experimental data as given in PubChem BioAssay AID330 (DTP/NCI, 2004).
Several values for one entry are separate records, joined by “and”; a condition that tells them apart may be missing. Identical values can stand only once. Toxic doses and inconclusive results are not listed. Rule for the calls: active = survival T/C of 150% or more; inactive = T/C below 125% in these data.

Test system: P388 leukemia ip, CD2F1 mice, survival T/C
Test: NCI In Vivo Anticancer Drug Screen. Data for tumor model P388 Leukemia (intraperitoneal) in CD2F1 (CDF1) mice
Conditions: endpoint: median survival time, higher = longer survival
Method in brief: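 Mice carrying the transplanted tumor received test compound or vehicle. Survival was recorded in each group, and the value is the treated-group measurement divided by that of the vehicle-treated control group.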

[1] = dose: 50.0 mg/kg/injection, schedule: Q01DX009 (ip), vehicle: saline with Tween-80
[2] = dose: 100.0 mg/kg/injection, schedule: Q01DX009 (ip), vehicle: saline with Tween-80
[3] = dose: 200.0 mg/kg/injection, schedule: Q01DX009 (ip), vehicle: saline with Tween-80
[4] = dose: 12.5 mg/kg/injection, schedule: Q01DX009 (ip), vehicle: saline with Tween-80
[5] = dose: 25.0 mg/kg/injection, schedule: Q01DX009 (ip), vehicle: saline with Tween-80
[6] = dose: 50.0 mg/kg/injection, schedule: Q01DX005 (ip), vehicle: Klucel + Tween-80
[7] = dose: 100.0 mg/kg/injection, schedule: Q01DX005 (ip), vehicle: Klucel + Tween-80
[8] = dose: 200.0 mg/kg/injection, schedule: Q01DX005 (ip), vehicle: Klucel + Tween-80
[9] = dose: 50.0 mg/kg/injection, schedule: Q01DX005 (ip), vehicle: saline with Tween-80
[10] = dose: 100.0 mg/kg/injection, schedule: Q01DX005 (ip), vehicle: saline with Tween-80
[11] = dose: 200.0 mg/kg/injection, schedule: Q01DX005 (ip), vehicle: saline with Tween-80
[12] = dose: 60.0 mg/kg/injection, schedule: Q01DX005 (ip), vehicle: saline with Tween-80
[13] = dose: 120.0 mg/kg/injection, schedule: Q01DX005 (ip), vehicle: saline with Tween-80
[14] = dose: 240.0 mg/kg/injection, schedule: Q01DX005 (ip), vehicle: saline with Tween-80
[15] = dose: 100.0 mg/kg/injection, schedule: Q01DX001 (ip), vehicle: Klucel (hydroxypropylcellulose) (HPC)
[16] = dose: 200.0 mg/kg/injection, schedule: Q01DX001 (ip), vehicle: Klucel (hydroxypropylcellulose) (HPC)

Measured: T/C

O=C1O/C(=C(/C(=O)O)c2ccc(O)cc2)C(O)=C1c1cc2c3c(c(O)cc(C4=C(O)/C(=C(\C(=O)O)c5ccc(O)cc5)OC4=O)c3c1)OC2=O
inactive: dose: 10.25 mg/kg/injection, schedule: Q01DX005 (ip), vehicle: DMSO 94 % of control | dose: 12.0 mg/kg/injection, schedule: Q01DX005 (ip), vehicle: DMSO 98 % of control | dose: 20.5 mg/kg/injection, schedule: Q01DX005 (ip), vehicle: DMSO 110 % of control | dose: 24.0 mg/kg/injection, schedule: Q01DX005 (ip), vehicle: DMSO 106 % of control | dose: 41.0 mg/kg/injection, schedule: Q01DX005 (ip), vehicle: DMSO 106 % of control

C=C(CCCC)CNCCOC(=O)c1ccc([N+](=O)[O-])cc1
inactive: dose: 12.5 mg/kg/injection, schedule: Q04DX003 (ip), vehicle: saline 104 % of control | dose: 25.0 mg/kg/injection, schedule: Q04DX003 (ip), vehicle: saline 104 % of control | dose: 50.0 mg/kg/injection, schedule: Q04DX003 (ip), vehicle: saline 104 % of control

CC(=O)/C=C/c1ccc(Cl)c(Cl)c1
inactive: [1] 118 % of control | [2] 111 % of control | [3] 111 % of control

CC(=O)NC(=S)Nc1cccs1
inactive: [4] 99 % of control | [5] 103 % of control | [1] 95 % of control

CCOC(=O)C1n2c(=O)n(-c3ccccc3)c(=O)n21
inactive: [6] 96 % of control | [7] 87 % of control | [8] 93 % of control

C=CC1CC(NC(=O)c2ccccc2)C(=O)O1 (configuration not stated)
inactive: [9] 101 % of control | [10] 104 % of control | [11] 99 % of control

Nc1cccc2[nH]c(=O)c3ccccc3c12
inactive: [12] 93 % of control | [13] 105 % of control | [14] 106 % of control

N#C[C@@H]1C2C=CC(CC2)[C@H]1C#N
inactive: dose: 1.25 mg/kg/injection, schedule: Q01DX009 (ip), vehicle: saline with Tween-80 100 % of control | dose: 1.25 mg/kg/injection, schedule: Q04DX003 (ip), vehicle: saline with Tween-80 91 % of control | dose: 2.5 mg/kg/injection, schedule: Q01DX009 (ip), vehicle: saline with Tween-80 112 % of control | dose: 2.5 mg/kg/injection, schedule: Q04DX003 (ip), vehicle: saline with Tween-80 104 % of control | dose: 5.0 mg/kg/injection, schedule: Q04DX003 (ip), vehicle: saline with Tween-80 91 % of control

CC(C)[C@H](N)C(=O)NCCNC(=O)[C@@H](N)C(C)C
inactive: dose: 60.0 mg/kg/injection, schedule: Q01DX005 (ip), vehicle: saline 91 % of control | dose: 120.0 mg/kg/injection, schedule: Q01DX005 (ip), vehicle: saline 98 % of control

O=C(O)CC(O)(CC(=O)O)C(=O)O
inactive: dose: 0.12 % in 0.5 ml injection vol, schedule: Q01DX009 (ip), vehicle: water 100 % of control | dose: 0.25 % in 0.5 ml injection vol, schedule: Q01DX009 (ip), vehicle: water 99 % of control and 94 % of control | dose: 0.5 % in 0.5 ml injection vol, schedule: Q01DX009 (ip), vehicle: water 88 % of control and 90 % of control and 94 % of control

O=C(O)C(Cc1ccc(O)cc1)NC(c1ccccc1)P(=O)(O)O (configuration not stated)
inactive: [12] 108 % of control | [13] 98 % of control | [14] 99 % of control

Nc1nc2ccc(CO)nc2c(=O)[nH]1
inactive: [9] 98 % of control | [10] 106 % of control | [11] 101 % of control

O=C1C2=C(Nc3ccccc3N2)OC1c1ccco1 (configuration not stated)
inactive: dose: 12.5 mg/kg/injection, schedule: Q01DX005 (ip), vehicle: Klucel (hydroxypropylcellulose) (HPC) 103 % of control | dose: 25.0 mg/kg/injection, schedule: Q01DX005 (ip), vehicle: Klucel (hydroxypropylcellulose) (HPC) 100 % of control | dose: 50.0 mg/kg/injection, schedule: Q01DX005 (ip), vehicle: Klucel (hydroxypropylcellulose) (HPC) 102 % of control and 89 % of control

CCN(CC)CCCC(C)Nc1ccnc2cc(N(C)C)ccc12 (configuration not stated)
inactive: dose: 6.25 mg/kg/injection, schedule: Q01DX009 (ip), vehicle: saline with Tween-80 93 % of control | [4] 109 % of control | [5] 111 % of control

CCCCOP(=O)(O)OCCCC
inactive: [15] 111 % of control | [16] 105 % of control

FC(F)(F)c1nn2c(-c3cnns3)nnc2s1
inactive: [15] 98 % of control | [16] 99 % of control | dose: 400.0 mg/kg/injection, schedule: Q01DX001 (ip), vehicle: Klucel (hydroxypropylcellulose) (HPC) 104 % of control

C=C(C)C#CCN(CCO)C(C)C
inactive: [12] 102 % of control | [13] 98 % of control

COc1ccc2nc3ccccc3c(NCCNCCO)c2c1
inactive: dose: 1.25 mg/kg/injection, schedule: Q01DX009 (ip), vehicle: saline 105 % of control | dose: 2.5 mg/kg/injection, schedule: Q01DX009 (ip), vehicle: saline 105 % of control | dose: 5.0 mg/kg/injection, schedule: Q01DX009 (ip), vehicle: saline 120 % of control

COc1ccccc1N(CCCO)C(=S)Nc1ccccc1
inactive: dose: 25.0 mg/kg/injection, schedule: Q01DX009 (ip), vehicle: other 105 % of control | dose: 50.0 mg/kg/injection, schedule: Q01DX009 (ip), vehicle: other 110 % of control | dose: 100.0 mg/kg/injection, schedule: Q01DX009 (ip), vehicle: other 122 % of control | dose: 200.0 mg/kg/injection, schedule: Q01DX009 (ip), vehicle: other 111 % of control | dose: 400.0 mg/kg/injection, schedule: Q01DX009 (ip), vehicle: other 111 % of control

O=c1c2ccccc2nc2n1CCc1c-2[nH]c2ccccc12
inactive: dose: 3.75 mg/kg/injection, schedule: Q01DX009 (ip), vehicle: saline with Tween-80 93 % of control | dose: 7.5 mg/kg/injection, schedule: Q01DX009 (ip), vehicle: saline with Tween-80 98 % of control | dose: 15.0 mg/kg/injection, schedule: Q01DX009 (ip), vehicle: saline with Tween-80 93 % of control

C=CCSc1nc2ccc(NCn3c(=S)sc4ccccc43)cc2s1
inactive: dose: 100.0 mg/kg/injection, schedule: Q04DX003 (ip), vehicle: Klucel (hydroxypropylcellulose) (HPC) 89 % of control | dose: 200.0 mg/kg/injection, schedule: Q04DX003 (ip), vehicle: Klucel (hydroxypropylcellulose) (HPC) 89 % of control | dose: 400.0 mg/kg/injection, schedule: Q04DX003 (ip), vehicle: Klucel (hydroxypropylcellulose) (HPC) 89 % of control

COc1ccc(C(C)(OC)c2cc(C(C)(C)C)c(O)c(C(C)(C)C)c2)cc1 (configuration not stated)
inactive: dose: 50.0 mg/kg/injection, schedule: Q01DX005 (ip), vehicle: saline + Tween-80 + alcohol 104 % of control | dose: 100.0 mg/kg/injection, schedule: Q01DX005 (ip), vehicle: saline + Tween-80 + alcohol 101 % of control | dose: 200.0 mg/kg/injection, schedule: Q01DX005 (ip), vehicle: saline + Tween-80 + alcohol 102 % of control

CCOC(=O)C1Cc2nc(-c3ccccc3)ncc2C1=O (configuration not stated)
inactive: [4] 107 % of control | [5] 107 % of control | [1] 101 % of control

NS(=O)(=O)c1ccc(N2C(=S)N(c3ccccc3)C(=Nc3ccccc3)C2=Nc2ccccc2)cc1
inactive: [6] 96 % of control | [7] 105 % of control | [8] 89 % of control

CCNC(=O)c1ccccc1S(C)=O (configuration not stated)
inactive: [12] 99 % of control | [13] 111 % of control | [14] 104 % of control

CSC(=S)n1nc(C)c(N=Nc2cccc(Cl)c2Cl)c1C
inactive: [9] 88 % of control | [10] 88 % of control | [11] 89 % of control

O=S(=O)(O)SCCNCCCCC1CCCCC1
inactive: dose: 3.75 mg/kg/injection, schedule: Q01DX005 (ip), vehicle: saline with Tween-80 99 % of control | dose: 7.5 mg/kg/injection, schedule: Q01DX005 (ip), vehicle: saline with Tween-80 90 % of control | dose: 15.0 mg/kg/injection, schedule: Q01DX005 (ip), vehicle: saline with Tween-80 101 % of control and 104 % of control | dose: 30.0 mg/kg/injection, schedule: Q01DX005 (ip), vehicle: saline with Tween-80 111 % of control | [12] 120 % of control

Cc1ccc(S(=O)(=O)NCCN(CCN(CCNS(=O)(=O)c2ccc(C)cc2)S(=O)(=O)c2ccc(C)cc2)S(=O)(=O)c2ccc(C)cc2)cc1
inactive: [1] 101 % of control | [2] 92 % of control | [3] 90 % of control

O=C1C(c2cnc3c(n2)CCC=C3)=C(O)c2ccccc21
inactive: [12] 99 % of control | [13] 100 % of control | [14] 100 % of control
